From patent US10266526B2, “Substituted 1,2,3-triazoles as SMYD inhibitors for treating cancer” (EPIZYME, INC., priority 2014, dated 2019)

Molecular target: SMYD2 (Homo sapiens (Human), UniProt Q9NRG4)
Assay: SMYD2 biochemical assay (SMYD2 enzyme assay on peptide substrate, 3H-SAM Flashplate)
Details: read-out: SMYD2 Biochem IC50; IC50 values are an average of n = 1 to n = 50

Chain of SMYD2 (Q9NRG4 whole entry): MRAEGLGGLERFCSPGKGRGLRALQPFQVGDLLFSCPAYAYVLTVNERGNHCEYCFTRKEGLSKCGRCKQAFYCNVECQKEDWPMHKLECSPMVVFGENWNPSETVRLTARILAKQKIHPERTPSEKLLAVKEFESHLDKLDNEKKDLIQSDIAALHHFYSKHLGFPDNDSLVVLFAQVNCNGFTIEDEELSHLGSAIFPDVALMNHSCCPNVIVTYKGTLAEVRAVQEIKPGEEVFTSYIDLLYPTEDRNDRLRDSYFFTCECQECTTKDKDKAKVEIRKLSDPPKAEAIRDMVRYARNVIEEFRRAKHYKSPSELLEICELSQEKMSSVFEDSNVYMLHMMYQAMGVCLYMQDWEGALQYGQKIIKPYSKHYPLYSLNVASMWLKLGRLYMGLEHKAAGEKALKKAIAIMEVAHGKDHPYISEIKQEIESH

Structure (SMILES) | IC50 [µM]
CC(c1ccc(OCCCN(C)C)cc1)N1CC(NC(=O)c2cn(C3CC3)nn2)C1 (stereo not drawn) [compound 858, 1-cyclopropyl-N-[1-(1-{4-[3-(dimethylamino)propoxy]phenyl}ethyl)azetidin-3-yl]-1H-1,2,3-triazole-4-carboxamide] | 4.79
CC(c1cccc(OCCO)c1Cl)N1CC(NC(=O)c2cn(C3CC3)nn2)C1 (stereo not drawn) [compound 775, N-(1-{1-[2-chloro-3-(2-hydroxyethoxy)phenyl]ethyl}azetidin-3-yl)-1-cyclopropyl-1H-1,2,3-triazole-4-carboxamide] | 0.0494
CC(C)N1CC(NC(=O)c2cn(C3CC3)nn2)C1(C)C (stereo not drawn) [compound 799, 1-cyclopropyl-N-[2,2-dimethyl-1-(propan-2-yl)azetidin-3-yl]-1H-1,2,3-triazole-4-carboxamide] | 9.6
COc1cccc(O)c1C(C)N1CC(NC(=O)c2cn(C3CC3)nn2)C1 (stereo not drawn) [compound 750, 1-cyclopropyl-N-{1-[1-(2-hydroxy-6-methoxyphenyl)ethyl]azetidin-3-yl}-1H-1,2,3-triazole-4-carboxamide] | 1.28
CC(c1ccc(OCC(C)(C)C)cc1)N1CC(NC(=O)c2cn(C3CC3)nn2)C1 (stereo not drawn) [compound 864, 1-cyclopropyl-N-(1-{1-[4-(2,2-dimethylpropoxy)phenyl]ethyl}azetidin-3-yl)-1H-1,2,3-triazole-4-carboxamide] | 3.14
COc1ccc(C(N2CC(NC(=O)c3cn(C4CC4)nn3)C2)C(F)(F)F)cc1 (stereo not drawn) [compound 749, 1-cyclopropyl-N-{1-[2,2,2-trifluoro-1-(4-methoxyphenyl)ethyl]azetidin-3-yl}-1H-1,2,3-triazole-4-carboxamide] | 0.565
COc1ccc(C(C)N2CC(NC(=O)c3cn(C4CC4)nn3)C2)cc1OC (stereo not drawn) [compound 698, 1-cyclopropyl-N-{1-[1-(3,4-dimethoxyphenyl)ethyl]azetidin-3-yl}-1H-1,2,3-triazole-4-carboxamide] | 3.69
O=C(NC1CN(C2CCc3cc(Cl)ccc32)C1)c1cn(C2CC2)nn1 (stereo not drawn) [compound 719, N-[1-(5-chloro-2,3-dihydro-1H-inden-1-yl)azetidin-3-yl]-1-cyclopropyl-1H-1,2,3-triazole-4-carboxamide] | 4.41
CC[C@@H](c1cccc(Cl)c1)N1CC(NC(=O)c2cc(C3CC3)cnn2)C1 [compound 866, N-{1-[(1S)-1-(3-chlorophenyl)propyl]azetidin-3-yl}-5-cyclopropylpyridazine-3-carboxamide] | 0.355
COc1c(OCCO)cccc1C(C)N1CC(NC(=O)c2cc(C3CC3)cnn2)C1 (stereo not drawn) [compound 650, 5-cyclopropyl-N-(1-{1-[3-(2-hydroxyethoxy)-2-methoxyphenyl]ethyl}azetidin-3-yl)pyridazine-3-carboxamide] | 0.312
CC(c1cc(Cl)ccc1Cl)N1CC(NC(=O)c2cc(C3CC3)cnn2)C1 (stereo not drawn) [compound 649, 5-cyclopropyl-N-{1-[1-(2,5-dichlorophenyl)ethyl]azetidin-3-yl}pyridazine-3-carboxamide] | 0.14
CC(c1cnccn1)N1CC(NC(=O)c2cn(C3CC3)nn2)C1 (stereo not drawn) [compound 745, 1-cyclopropyl-N-{1-[1-(pyrazin-2-yl)ethyl]azetidin-3-yl}-1H-1,2,3-triazole-4-carboxamide] | 7.44
O=C(NC1CN(Cc2ccc3c(c2)C(=O)NC3)C1)c1cn(C2CC2)nn1 [compound 765, 1-cyclopropyl-N-{1-[(3-oxo-2,3-dihydro-1H-isoindol-5-yl)methyl]azetidin-3-yl}-1H-1,2,3-triazole-4-carboxamide] | 10.2
CCC(c1cccc(F)c1)N1CC(NC(=O)c2cn(C3CC3)nn2)C1 (stereo not drawn) [compound 711, 1-cyclopropyl-N-{1-[1-(3-fluorophenyl)propyl]azetidin-3-yl}-1H-1,2,3-triazole-4-carboxamide] | 1.01
COc1ccc2c(c1Cl)CCC2N1CC(NC(=O)c2cn(C3CC3)nn2)C1 (stereo not drawn) [compound 713, N-[1-(4-chloro-5-methoxy-2,3-dihydro-1H-inden-1-yl)azetidin-3-yl]-1-cyclopropyl-1H-1,2,3-triazole-4-carboxamide] | 12.9
O=C(NC1CN(C2(c3ccccc3)COC2)C1)c1cn(C2CC2)nn1 [compound 781, 1-cyclopropyl-N-[1-(3-phenyloxetan-3-yl)azetidin-3-yl]-1H-1,2,3-triazole-4-carboxamide] | > 50
CC(O)COc1ccc(CN2CC(NC(=O)c3cn(C4CC4)nn3)C2)cc1 (stereo not drawn) [compound 822, 1-cyclopropyl-N-(1-{[4-(2-hydroxypropoxy)phenyl]methyl}azetidin-3-yl)-1H-1,2,3-triazole-4-carboxamide] | 1.97
O=C(NC1CN(Cc2ccc(OCc3cscn3)cc2)C1)c1cn(C2CC2)nn1 [compound 846, 1-cyclopropyl-N-(1-{[4-(1,3-thiazol-4-ylmethoxy)phenyl]methyl}azetidin-3-yl)-1H-1,2,3-triazole-4-carboxamide] | 1.09
COc1ccc(C(C)N2CC(NC(=O)c3cn(C4CC4)nn3)C2)c(OC)c1 (stereo not drawn) [compound 801, 1-cyclopropyl-N-{1-[1-(2,4-dimethoxyphenyl)ethyl]azetidin-3-yl}-1H-1,2,3-triazole-4-carboxamide] | 1.06
CC(c1cccc(OCCO)c1Cl)N1CC(NC(=O)c2cc(C3CC3)cnn2)C1 (stereo not drawn) [compound 652, N-(1-{1-[2-chloro-3-(2-hydroxyethoxy)phenyl]ethyl}azetidin-3-yl)-5-cyclopropylpyridazine-3-carboxamide] | 0.0416
COc1ccc(C(C)N2CC(NC(=O)c3cn(C4CC4)nn3)C2)c(Cl)c1 (stereo not drawn) [compound 845, N-{1-[1-(2-chloro-4-methoxyphenyl)ethyl]azetidin-3-yl}-1-cyclopropyl-1H-1,2,3-triazole-4-carboxamide] | 0.088
CNCCN1CCC(CN2CC(NC(=O)c3cn(C4CC4)nn3)C2)C1=O (stereo not drawn) [compound 756, 1-cyclopropyl-N-[1-({1-[2-(methylamino)ethyl]-2-oxopyrrolidin-3-yl}methyl)azetidin-3-yl]-1H-1,2,3-triazole-4-carboxamide] | 17
NCc1cccc(CN2CC(NC(=O)c3cn(C4CC4)nn3)C2)c1 [compound 754, N-(1-{[3-(aminomethyl)phenyl]methyl}azetidin-3-yl)-1-cyclopropyl-1H-1,2,3-triazole-4-carboxamide] | 7.34

Continued, values first:

IC50 [µM] | Structure (SMILES)
1.3 | COc1ccccc1Cn1cc(CN2CC(NC(=O)c3cn(C4CC4)nn3)C2)cn1 [compound 995, 1-cyclopropyl-N-(1-((1-(2-methoxybenzyl)-1H-pyrazol-4-yl)methyl)azetidin-3-yl)-1H-1,2,3-triazole-4-carboxamide]
> 50 | O=C(NC1CN(Cc2cnn(Cc3ccccc3)c2)C1)c1ncc(C2CC2)[nH]1 [compound 986, N-(1-((1-benzyl-1H-pyrazol-4-yl)methyl)azetidin-3-yl)-5-cyclopropyl-1H-imidazole-2-carboxamide]
1.6 | CC(c1ccc2nn(C)cc2c1)N1CC(NC(=O)c2cn(C3CC3)nn2)C1 (stereo not drawn) [compound 935, 1-cyclopropyl-N-(1-(1-(2-methyl-2H-indazol-5-yl)ethyl)azetidin-3-yl)-1H-1,2,3-triazole-4-carboxamide]
2.7 | O=C(NC1CN(Cc2ccc(OCc3ccccn3)cc2)C1)c1cn(C2CC2)nn1 [compound 992, 1-cyclopropyl-N-(1-(4-(pyridin-2-ylmethoxy)benzyl)azetidin-3-yl)-1H-1,2,3-triazole-4-carboxamide]
0.028 | CSc1ccc(Cn2cc(CN3CC(NC(=O)c4cn(C5CC5)nn4)C3)cn2)cc1 [compound 941, 1-cyclopropyl-N-(1-((1-(4-(methylthio)benzyl)-1H-pyrazol-4-yl)methyl)azetidin-3-yl)-1H-1,2,3-triazole-4-carboxamide]
0.056 | CC(C)(C)c1ccc(Cn2cc(CN3CC(NC(=O)c4cn(C5CC5)nn4)C3)cn2)cc1 [compound 947, N-(1-((1-(4-(tert-butyl)benzyl)-1H-pyrazol-4-yl)methyl)azetidin-3-yl)-1-cyclopropyl-1H-1,2,3-triazole-4-carboxamide]
1.3 | CC(C)N1CC(NC(=O)c2cc(C3CC3)ccn2)C1 [compound 961, 4-cyclopropyl-N-(1-isopropylazetidin-3-yl)picolinamide]
1.9 | O=C(NC1CN(Cc2ccc(OCc3nncs3)cc2)C1)c1cn(C2CC2)nn1 [compound 988, N-(1-(4-((1,3,4-thiadiazol-2-yl)methoxy)benzyl)azetidin-3-yl)-1-cyclopropyl-1H-1,2,3-triazole-4-carboxamide]
10.5 | CC(c1cccc(OCCO)c1Cl)N1CC(NC(=O)c2cc(C3CC3)ccn2)C1 (stereo not drawn) [compound 964, N-(1-(1-(2-chloro-3-(2-hydroxyemoxy)phenyl)ethyl)azetidin-3-yl)-4-cyclopropylpicolinamide]
0.78 | CC(c1ccc(OCCc2ccccc2)cc1)N1CC(NC(=O)c2cn(C3CC3)nn2)C1 (stereo not drawn) [compound 960, 1-cyclopropyl-N-(1-(1-(4-phenethoxyphenyl)ethyl)azetidin-3-yl)-1H-1,2,3-triazole-4-carboxamide]
0.87 | CC(c1ccc(COc2ccccc2)cc1)N1CC(NC(=O)c2cn(C3CC3)nn2)C1 (stereo not drawn) [compound 974, 1-cyclopropyl-N-(1-(1-(4-(phenoxymethyl)phenyl)ethyl)azetidin-3-yl)-1H-1,2,3-triazole-4-carboxamide]
0.169 | COc1cccc(Cn2cc(CN3CC(NC(=O)c4cn(C5CC5)nn4)C3)cn2)c1 [compound 982, 1-cyclopropyl-N-(1-((1-(3-methoxybenzyl)-1H-pyrazol-4-yl)methyl)azetidin-3-yl)-1H-1,2,3-triazole-4-carboxamide]
0.088 | Cc1ccc(COc2ccc(C(C)N3CC(NC(=O)c4cn(C5CC5)nn4)C3)cc2)cc1 (stereo not drawn) [compound 971, 1-cyclopropyl-N-(1-(1-(4-((4-methylbenzyl)oxy)phenyl)ethyl)azetidin-3-yl)-1H-1,2,3-triazole-4-carboxamide]
